Target: T1, F508del CFTR (Homo sapiens, UniProt P13569, DEL508-508)
T1 construct: Primary CF airway epithelial cells were obtained from the UNC Cystic Fibrosis Tissue Procurement and Cell Culture Core; host or cells: primary CF airway epithelial cells
Assay: Equivalent current assay in primary CF airway epithelial cells (Corrector Activity, NAUC normalized to 3 μM VX809)
Type: cell-based
Details: NAUC as % of positive control (VX-809)
Method: Primary CF airway epithelial cells were obtained from the UNC Cystic Fibrosis Tissue Procurement and Cell Culture Core. The cells are grown at 37° C. in a Heracell 150i incubator using growth media (BEGM, Fischer). Cells were then transferred to differentiation media (airway liquid interface media (ALI) media; Lechner J F and LaVeck M A, J. Tissue Culture Methods 1985, 9: 43-48) for a minimum of 4 weeks on coated Costar transwells. Two days before the assay the mucus on the apical surface of the cells was aspirated after incubating with 200 μL of differentiation media for at least thirty (30) minutes. One day before the assay test compounds were added to the basolateral surface of the cells at various test concentrations dissolved in DMSO. Duplicate wells were prepared giving a n=4 or n=6 protocol.
Cells were treated for 24 hours with various combinations and concentrations of the test articles, reference standard (3 μM VX809, positive control). Compounds stock solutions were prepared in DMSO and diluted 1/1000 into ALI media to their final assay concentration. Cells were treated with combination solutions (2 mL of each dilution) and incubated at 37° C. for 24 h.
For the equivalent current assay, cells on six Transwell (24-well) plates were treated. Each Transwell plate was filled with 200 μl of HBS on the apical surface and 2 ml on the basolateral surface. Plates were placed horizontally in a heated mount at 37° C. and equilibrated for 30 minutes. Resting current was measured for 15 min and then blocked by the apical addition of 5 μM benzamil. After 20 min, CFTR activator (10 μM forskolin) and potentiator (either 1 μM VX-770 or 3 μM FDL176) were added to both the apical and basolateral side to stimulate CFTR. An increase in chloride current is seen as an upward deflection of the trace. After another 60 min, CFTR-172 (a CFTR inhibitor, 20 μM) and/or bumetanide (20 uM) was added to block CFTR mediated chloride current.
The raw data, voltage vs. time and resistance vs. time for the equivalent current assay (sampling interval: 6 minutes) were transferred to Excel (Microsoft Office Professional, version 14.0.7106.5003) for analysis. CFTR specific current was computed from I=V/R (Ohms Law), the average amplitude of the increase in current elicited upon addition forskolin and ending upon addition of the CFTR channel specific blocker CFTR-172. This average is equivalent to the sum of the average forskolin activated and the average VX770-potentiated currents. The average current measured in vehicle (0.1% DMSO) treated cells, IV, was subtracted from the current for the test article, ITA, or from the corrector reference standard VX809 (3 uM, ISTD). For replicate measurements, the averaged vehicle subtracted response for the test article, was normalized to the averaged vehicle subtracted response of the reference corrector VX809 (3 μM).
INSC=(ITA−IV)(ave)/(ISTD−IV)(ave) (Equation 1)
A second endpoint, for the equivalent current assay, evaluated was NAUC, the normalized area under the curve (AUC) measuring the response after addition of forskolin and potentiator to the time point right before the addition of the CFTR inhibitor. The AUC is effectively the average response multiplied by the duration of the response. The AUC of the test article, AUCTA was then corrected by subtracting the average vehicle response, AUCV,ave over the same time range, and normalized as for the inhibitor-sensitive current to the difference of the corrector reference standard VX809 (3 μM VX809r,ave and the vehicle response:
NAUCTA=[AUCTA−AUCV,ave]/[AUCVx809r,ave−AUCV,ave] (Equation 2).
The normalized value for DMSO is 0.0 and for VX-809 alone is 1.0 for both of these equations.
Experiments were run with a minimum of n=4 replicates per concentration. Since the distribution for the ratio of two normal distributions is a Cauchy distribution, the median value must be used for the average and the average deviation must be used for the error of all normalized data. […]

T1 sequence (P13569 with tags, fused parts or gaps DEL508-508): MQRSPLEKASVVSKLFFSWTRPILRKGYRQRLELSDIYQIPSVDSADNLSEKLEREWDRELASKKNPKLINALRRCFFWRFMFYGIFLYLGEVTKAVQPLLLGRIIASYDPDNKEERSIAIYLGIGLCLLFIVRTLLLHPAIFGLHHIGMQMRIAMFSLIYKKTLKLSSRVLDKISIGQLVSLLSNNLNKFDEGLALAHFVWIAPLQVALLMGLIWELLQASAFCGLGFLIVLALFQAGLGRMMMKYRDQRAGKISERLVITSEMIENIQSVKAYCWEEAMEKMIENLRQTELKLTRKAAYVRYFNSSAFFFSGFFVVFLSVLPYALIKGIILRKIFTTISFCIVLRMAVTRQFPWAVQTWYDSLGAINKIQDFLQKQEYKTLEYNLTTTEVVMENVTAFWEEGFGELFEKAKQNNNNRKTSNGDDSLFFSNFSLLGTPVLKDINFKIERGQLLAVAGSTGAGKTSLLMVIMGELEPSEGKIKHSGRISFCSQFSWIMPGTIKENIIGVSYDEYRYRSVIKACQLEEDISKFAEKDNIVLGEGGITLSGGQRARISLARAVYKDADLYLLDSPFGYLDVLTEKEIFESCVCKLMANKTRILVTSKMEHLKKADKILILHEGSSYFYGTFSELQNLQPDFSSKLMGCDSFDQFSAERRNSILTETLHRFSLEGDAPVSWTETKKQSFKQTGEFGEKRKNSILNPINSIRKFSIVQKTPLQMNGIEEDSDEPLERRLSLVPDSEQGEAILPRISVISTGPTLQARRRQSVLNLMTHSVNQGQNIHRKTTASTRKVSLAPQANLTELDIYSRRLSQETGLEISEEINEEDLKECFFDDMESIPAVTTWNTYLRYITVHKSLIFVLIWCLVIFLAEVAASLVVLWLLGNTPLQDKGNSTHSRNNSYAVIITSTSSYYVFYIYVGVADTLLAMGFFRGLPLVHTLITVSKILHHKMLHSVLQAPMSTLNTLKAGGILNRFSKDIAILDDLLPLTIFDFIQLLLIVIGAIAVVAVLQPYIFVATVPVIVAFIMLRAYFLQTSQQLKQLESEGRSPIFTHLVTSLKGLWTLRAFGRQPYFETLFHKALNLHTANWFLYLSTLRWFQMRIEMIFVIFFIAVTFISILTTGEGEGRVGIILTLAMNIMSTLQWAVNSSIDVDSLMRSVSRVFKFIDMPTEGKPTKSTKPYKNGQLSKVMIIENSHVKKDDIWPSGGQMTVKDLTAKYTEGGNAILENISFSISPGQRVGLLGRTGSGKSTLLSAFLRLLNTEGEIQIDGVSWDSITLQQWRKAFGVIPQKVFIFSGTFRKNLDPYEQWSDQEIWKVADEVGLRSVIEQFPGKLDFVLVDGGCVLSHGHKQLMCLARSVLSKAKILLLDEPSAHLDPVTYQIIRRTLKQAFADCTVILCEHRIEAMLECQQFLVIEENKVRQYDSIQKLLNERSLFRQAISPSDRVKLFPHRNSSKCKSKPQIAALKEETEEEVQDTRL

Compound | Corr Activity (NAUC)
CC(C)(C)NC(=O)c1cc2c(=O)n(CC(=O)N3CCCc4c3ccc3c4OC(F)(F)O3)nc(-c3cccc(Cl)c3)c2o1 [Example 128] | ++ (NAUC 70-40% of positive control)
CC(C)(C)NC(=O)c1cc2c(=O)n(CC(=O)N3CCCc4c3ccc3c4OC(F)(F)O3)nc(-c3cccc(C#N)c3)c2o1 [Example 129] | ++ (NAUC 70-40% of positive control)
CCN(C(=O)Cn1nc(-c2cc(C#N)cc(C(C)(C)C)c2)c2oc(C(=O)NC(C)(C)C)cc2c1=O)c1ccc2c(c1)OC(F)(F)O2 [Example 130] | +++ (NAUC>70% of positive control)
CCN(C(=O)Cn1nc(-c2cc(C)cc(C#N)c2)c2oc(C(=O)NC(C)(C)C)cc2c1=O)c1ccc2c(c1)OC(F)(F)O2 [Example 131] | +++ (NAUC>70% of positive control)
Cc1cc(C#N)cc(-c2nn(CC(=O)N(C)c3ccc4c(c3)OC(F)(F)O4)c(=O)c3cc(C(=O)NC(C)(C)C)oc23)c1 [Example 132] | +++ (NAUC>70% of positive control)
CCN(C(=O)Cn1nc(-c2cc(C)cc(C#N)c2)c2oc(C(=O)NC(C)(C)C)cc2c1=O)c1cc2c(cc1C)OC(F)(F)O2 [Example 133] | +++ (NAUC>70% of positive control)
Cc1cc(C#N)cc(-c2nn(CC(=O)N(C)c3cc4c(cc3C)OC(F)(F)O4)c(=O)c3cc(C(=O)NC(C)(C)C)oc23)c1 [Example 134] | ++ (NAUC 70-40% of positive control)
Cc1cc2c(cc1N(C)C(=O)Cn1nc(-c3cc(F)cc(C#N)c3)c3oc(C(=O)NC(C)(C)C)cc3c1=O)OC(F)(F)O2 [Example 135] | +++ (NAUC>70% of positive control)
CCN(C(=O)Cn1nc(-c2cc(F)cc(C#N)c2)c2oc(C(=O)NC(C)(C)C)cc2c1=O)c1cc2c(cc1C)OC(F)(F)O2 [Example 136] | +++ (NAUC>70% of positive control)
CCN(C(=O)Cn1nc(-c2cc(Cl)cc(C#N)c2)c2oc(C(=O)NC(C)(C)C)cc2c1=O)c1cc2c(cc1C)OC(F)(F)O2 [Example 137] | +++ (NAUC>70% of positive control)
Cc1cc2c(cc1N(C)C(=O)Cn1nc(-c3cc(Cl)cc(C#N)c3)c3oc(C(=O)NC(C)(C)C)cc3c1=O)OC(F)(F)O2 [Example 138] | +++ (NAUC>70% of positive control)
Cc1c(N(C)C(=O)Cn2nc(-c3cc(F)cc(C#N)c3)c3oc(C(=O)NC(C)(C)C)cc3c2=O)ccc2c1OC(F)(F)O2 [Example 139] | +++ (NAUC>70% of positive control)
CCN(C(=O)Cn1nc(-c2cc(F)cc(C#N)c2)c2oc(C(=O)NC(C)(C)C)cc2c1=O)c1ccc2c(c1C)OC(F)(F)O2 [Example 140] | ++ (NAUC 70-40% of positive control)
Cc1c(N(C)C(=O)Cn2nc(-c3cc(Cl)cc(C#N)c3)c3oc(C(=O)NC(C)(C)C)cc3c2=O)ccc2c1OC(F)(F)O2 [Example 141] | +++ (NAUC>70% of positive control)
CCN(C(=O)Cn1nc(-c2cc(Cl)cc(C#N)c2)c2oc(C(=O)NC(C)(C)C)cc2c1=O)c1ccc2c(c1C)OC(F)(F)O2 [Example 142] | ++ (NAUC 70-40% of positive control)
CN(C(=O)Cn1nc(-c2cc(C#N)cc(C(F)(F)F)c2)c2oc(C(=O)NC(C)(C)C)cc2c1=O)c1ccc2c(c1)OC(F)(F)O2 [Example 143] | ++ (NAUC 70-40% of positive control)
CCN(C(=O)Cn1nc(-c2cc(C#N)cc(C(F)(F)F)c2)c2oc(C(=O)NC(C)(C)C)cc2c1=O)c1ccc2c(c1)OC(F)(F)O2 [Example 144] | +++ (NAUC>70% of positive control)
Cc1cc2c(cc1N(C)C(=O)Cn1nc(-c3cc(C#N)cc(C(F)F)c3)c3oc(C(=O)NC(C)(C)C)cc3c1=O)OC(F)(F)O2 [Example 145] | ++ (NAUC 70-40% of positive control)
CN(C(=O)Cn1nc(-c2cc(C#N)cc(C(F)F)c2)c2oc(C(=O)NC(C)(C)C)cc2c1=O)c1ccc2c(c1)OC(F)(F)O2 [Example 146] | +++ (NAUC>70% of positive control)

Compound | Corr Activity (NAUC)
CCN(C(=O)Cn1nc(-c2cccc(C#N)c2)c2oc(C(=O)NC(C)(C)C)cc2c1=O)c1ccc2c(c1F)OC(F)(F)O2 [Example 147] | +++ (NAUC>70% of positive control)
CN(C(=O)Cn1nc(-c2cccc(C#N)c2)c2oc(C(=O)NC(C)(C)C)cc2c1=O)c1ccc2c(c1F)OC(F)(F)O2 [Example 148] | +++ (NAUC>70% of positive control)
CCN(C(=O)Cn1nc(-c2cccc(C#N)c2)c2oc(C(=O)NC(C)(C)C(F)(F)F)cc2c1=O)c1ccc2c(c1)OC(F)(F)O2 [Example 149] | +++ (NAUC>70% of positive control)
CCN(C(=O)Cn1nc(-c2cc(C)cc(C#N)c2)c2oc(C(=O)NC(C)(C)C(F)(F)F)cc2c1=O)c1ccc2c(c1)OC(F)(F)O2 [Example 150] | +++ (NAUC>70% of positive control)
CCN(C(=O)Cn1nc(-c2cc(C)cc(C#N)c2)c2oc(C(=O)NC(C)(C)C(F)(F)F)cc2c1=O)c1cc2c(cc1C)OC(F)(F)O2 [Example 151] | +++ (NAUC>70% of positive control)
CCN(C(=O)Cn1nc(-c2cc(C)cc(C#N)c2)c2oc(C(=O)NC3(C(F)(F)F)CC3)cc2c1=O)c1ccc2c(c1)OC(F)(F)O2 [Example 152] | +++ (NAUC>70% of positive control)
CCN(C(=O)Cn1nc(-c2cccc(C#N)c2)c2oc(C(=O)NC3(C(F)(F)F)CC3)cc2c1=O)c1ccc2c(c1)OC(F)(F)O2 [Example 153] | +++ (NAUC>70% of positive control)
CCN(C(=O)Cn1nc(-c2cc(C)cc(C#N)c2)c2oc(C(=O)NC3(C(F)(F)F)CC3)cc2c1=O)c1cc2c(cc1C)OC(F)(F)O2 [Example 154] | +++ (NAUC>70% of positive control)
Cc1nc2ccc(N(C)C(=O)Cn3nc(-c4cccc(F)c4)c4oc(C(=O)NC(C)C)cc4c3=O)cc2o1 [Example 155] | ++ (NAUC 70-40% of positive control)
Cc1nc2ccc(N(C)C(=O)Cn3nc(-c4cccc(C#N)c4)c4oc(C(=O)NC(C)C)cc4c3=O)cc2o1 [Example 156] | ++ (NAUC 70-40% of positive control)
Cc1nc2ccc(N(C)C(=O)Cn3nc(-c4cccc(F)c4)c4oc5ccccc5c4c3=O)cc2o1 [Example 157] | ++ (NAUC 70-40% of positive control)
Cc1nc2ccc(N(C)C(=O)Cn3nc(-c4cccc(C#N)c4)c4oc5ccccc5c4c3=O)cc2o1 [Example 158] | +++ (NAUC>70% of positive control)
CCN(C(=O)Cn1nc(-c2cccc(C#N)c2)c2oc3ccccc3c2c1=O)c1ccc2c(c1)OC(F)(F)O2 [Example 159] | +++ (NAUC>70% of positive control)
O=C(Cn1nc(-c2cccc(F)c2)c2occc2c1=O)N1CCCc2c1ccc1c2OC(F)(F)O1 [Example 162] | +++ (NAUC>70% of positive control)
Cc1cc(C#N)cc(-c2nn(CC(=O)N3CCCc4c3ccc3c4OC(F)(F)O3)c(=O)c3ccoc23)c1 [Example 163] | +++ (NAUC>70% of positive control)
CCN(C(=O)Cn1nc(-c2cc(C)cc(C#N)c2)c2occc2c1=O)c1cc2c(cc1C)OC(F)(F)O2 [Example 164] | +++ (NAUC>70% of positive control)
Cc1cc(C#N)cc(-c2nn(CC(=O)N(C)c3cc4c(cc3C)OC(F)(F)O4)c(=O)c3ccoc23)c1 [Example 165] | +++ (NAUC>70% of positive control)
Cc1cc2c(cc1N(C)C(=O)Cn1nc(-c3cc(F)cc(C#N)c3)c3occc3c1=O)OC(F)(F)O2 [Example 166] | +++ (NAUC>70% of positive control)

— US20220402925A1, “COMPOUNDS AND METHODS FOR THE TREATMENT OF CYSTIC FIBROSIS” (Flatley Discovery Lab, LLC, priority 2019, published 2022)
